“Also recorded” adds a separate entry of the source. Bounds are passed on as bounds.

The test system of series [1] is mitochondrial enzyme from hamster brown fat. Particulars: cited from earlier work.
For series [2], the target named is T1, Acetyl-CoA Hydrolase from S. cerevisiae (Saccharomyces cerevisiae, UniProt P32316).
T1 sequence (P32316 1-526): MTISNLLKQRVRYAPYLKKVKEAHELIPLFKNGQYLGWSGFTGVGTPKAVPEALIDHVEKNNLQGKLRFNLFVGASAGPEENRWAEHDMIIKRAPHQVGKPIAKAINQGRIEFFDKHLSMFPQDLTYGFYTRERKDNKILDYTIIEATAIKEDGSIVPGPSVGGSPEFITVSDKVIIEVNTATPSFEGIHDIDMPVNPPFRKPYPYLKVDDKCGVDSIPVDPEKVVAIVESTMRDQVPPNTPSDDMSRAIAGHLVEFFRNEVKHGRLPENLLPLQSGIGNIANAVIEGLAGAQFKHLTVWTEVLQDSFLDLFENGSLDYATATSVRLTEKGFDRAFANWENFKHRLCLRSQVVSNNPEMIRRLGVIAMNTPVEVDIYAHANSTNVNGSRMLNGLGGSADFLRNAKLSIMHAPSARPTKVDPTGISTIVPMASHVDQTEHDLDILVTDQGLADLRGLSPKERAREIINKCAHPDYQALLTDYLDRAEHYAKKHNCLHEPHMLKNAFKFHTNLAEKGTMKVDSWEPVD
As to the kind of experiment: biochemical.

Series [3] deals with T1, Acetyl-CoA Hydrolase from S. cerevisiae. Description: Substrate specificity, colorimetric assay (DNTB, A412). Conditions: read-out: Relative Activity (%). In kind it is biochemical.
For series [4], the target named is T2, soluble cytosolic acetyl-CoA hydrolase found in rat liver (Rattus norvegicus, UniProt Q99NB7).
T2 construct: host or cells: rat liver cytoplasm (Prass et al. 1980; Soling et al. 1985)
Particulars: rat liver cytoplasmic, cold-labile enzyme; cited from earlier work.

Series [5] relates to mitochondrial acetyl-CoA hydrolase. Conditions: cited from earlier work.
For series [6], the target named is Human ACTH (1-24) (human) (UniProt P01189).
Substrate in series [7]: CC(=O)SCCNC(=O)CCNC(=O)[C@H](O)C(C)(C)COP(=O)(O)OP(=O)(O)OC[C@H]1O[C@@H](n2cnc3c(N)ncnc32)[C@H](O)[C@@H]1OP(=O)(O)O
As to the kind of experiment: purified protein, by the assay type. Particulars: other: substrate acetyl-CoA; Lineweaver-Burk plot; pH 7.4; 30.0 °C.

The mark [8] stands for this setting: pH 7.4, read-out: Enzyme Activity (%).

T2 sequence (Q99NB7 whole entry): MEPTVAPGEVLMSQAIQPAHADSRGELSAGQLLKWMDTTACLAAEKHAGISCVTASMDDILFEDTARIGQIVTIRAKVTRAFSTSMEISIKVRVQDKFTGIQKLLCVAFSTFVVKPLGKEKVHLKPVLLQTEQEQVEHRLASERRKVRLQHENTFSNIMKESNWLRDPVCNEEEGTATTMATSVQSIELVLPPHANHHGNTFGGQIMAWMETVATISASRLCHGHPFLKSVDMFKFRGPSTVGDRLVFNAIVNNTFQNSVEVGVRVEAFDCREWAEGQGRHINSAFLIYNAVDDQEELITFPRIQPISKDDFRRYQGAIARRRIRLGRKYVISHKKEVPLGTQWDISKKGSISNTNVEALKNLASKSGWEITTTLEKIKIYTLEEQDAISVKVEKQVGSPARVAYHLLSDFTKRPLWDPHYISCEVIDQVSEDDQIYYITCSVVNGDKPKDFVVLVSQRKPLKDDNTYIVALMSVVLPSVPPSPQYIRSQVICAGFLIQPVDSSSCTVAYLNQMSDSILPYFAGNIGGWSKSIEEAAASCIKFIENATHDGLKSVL

With `CC(=O)SCCNC(=O)CCNC(=O)[C@H](O)C(C)(C)COP(=O)(O)OP(=O)(O)OC[C@H]1O[C@@H](n2cnc3c(N)ncnc32)[C@H](O)[C@@H]1OP(=O)(O)O` [Acetyl-CoA, acetyl coenzyme A], the Km in series [1] is 51 µM. For the same molecule, the “effect on yeast enzyme activity (in words)” value in series [2] is “inhibited most effectively”. In addition, in series [2] (setting [8]), the remaining activity at 100 µM worked out at 66%, the remaining activity at 1000 µM turned out to be 28% and the remaining activity at 5000 µM was found to be 5%. For the same molecule, the Km in series [2] (substrate acetyl-CoA, Lineweaver-Burk plot, read-out: apparent Km) turned out to be 62 µM. In addition, the activity at 250 µM in series [3] amounted to 100%.

Turning to `CC(C)(COP(=O)(O)OP(=O)(O)OC[C@H]1O[C@@H](n2cnc3c(N)ncnc32)[C@H](O)[C@@H]1OP(=O)(O)O)[C@@H](O)C(=O)NCCC(=O)NCCS` [CoASH, coenzyme A], the “effect on enzyme (in words)” value is “inhibited; also recorded: strong product inhibitor” in series [4] and “only weakly inhibited; also recorded: weak inhibitor” in series [5]. For the same molecule, the “effect on yeast enzyme activity (in words)” value in series [2] is on record as “only weakly inhibited”. In series [2] (read-out: inhibition of hydrolysis of [1-14C] acetyl-CoA), the inhibition at 25 µM is less than 30%.

In turn, “yeast N-alpha-acetyltransferase (enzyme)” returned a transfer of [3H] acetyl group from [3H] acetyl-CoA to ACTH (1-24), units in series [6] of 63300 units.

B1: Acetyl-CoA Hydrolase from S. cerevisiae (Saccharomyces cerevisiae S288C) (protein)
chain: MTISNLLKQRVRYAPYLKKVKEAHELIPLFKNGQYLGWSGFTGVGTPKAVPEALIDHVEKNNLQGKLRFNLFVGASAGPEENRWAEHDMIIKRAPHQVGKPIAKAINQGRIEFFDKHLSMFPQDLTYGFYTRERKDNKILDYTIIEATAIKEDGSIVPGPSVGGSPEFITVSDKVIIEVNTATPSFEGIHDIDMPVNPPFRKPYPYLKVDDKCGVDSIPVDPEKVVAIVESTMRDQVPPNTPSDDMSRAIAGHLVEFFRNEVKHGRLPENLLPLQSGIGNIANAVIEGLAGAQFKHLTVWTEVLQDSFLDLFENGSLDYATATSVRLTEKGFDRAFANWENFKHRLCLRSQVVSNNPEMIRRLGVIAMNTPVEVDIYAHANSTNVNGSRMLNGLGGSADFLRNAKLSIMHAPSARPTKVDPTGISTIVPMASHVDQTEHDLDILVTDQGLADLRGLSPKERAREIINKCAHPDYQALLTDYLDRAEHYAKKHNCLHEPHMLKNAFKFHTNLAEKGTMKVDSWEPVD
With B1, the Km in series [7] came to 62 µM.

Source of the values: patent US5487990A (The General Hospital Corporation, priority 1992, dated 1996).
